Test results as given in article PMC3734285, “Expression and Function of the Lipocalin-2 (24p3/NGAL) Receptor in Rodent and Human Intestinal Epithelia” (PLoS ONE, 2013).
Read-outs that look alike come from different tables or passages of the source. Numbered stars: 1 amine (or outer) side, 2 acyl side, 3 side chain; on linkers, the order of the positions; unused ones are H or OH. Square brackets hold non-standard residues; d marks the D form. Peptide text beside a SMILES is read from it. * marks the point of attachment. X1 = N=c1ccc2c(-c3ccc(C(=O)*)cc3C(=O)O)c3ccc(N)c(S(=O)(=O)O)c3oc-2c1S(=O)(=O)O; γGlu = O=C(O)[C@H](CCC(=O)[*:2])N[*:1]

Assays:
[1] = tested on: colon-like Caco-2 BBE cells; assay: Internalization of fluorescence-labelled ligands, immunofluorescence microscopy; type: cell-based, human; conditions: for Kd: 24 h, up to 5.6 µM A488-PC3, FBS-free medium, 5-6 experiments
Description: The full-length clone of rat r24p3-R was transiently transfected into CHO cells 24 h after seeding using Lipofectamine 2000, as described previously. Forty eight hours after transfection, r24p3-R- and empty vector (pcDNA3.1)-transfected cells were incubated for 24 h with 0-2.8 µM A488-PC3, as described previously for A546-MT [24]. Colon- or duodenum-like Caco-2 BBE cells were seeded at a density of 50,000 cells/coverslip and grown for 48 h before addition of different concentrations of A488-PC3 or A546-MT ± hNGAL for 24 h in FBS-free medium. Cells were stained with primary α-NT-24p3-R antibody (1:100) and secondary Cy3-coupled anti-rabbit IgG (1:600) for A488-PC3 uptake or with A546-conjugated anti-rabbit IgG (1:600) for A546-MT uptake.
For each experiment, 5-10 images were acquired and quantified as described earlier. For determination of r24p3-R-dependent fluorescence uptake in CHO cells, values in vector-transfected cells were subtracted from values obtained in the corresponding r24p3-R-transfected cells. […] To determine hNGAL-R-specific uptake of fluorescent dye-labeled proteins in Caco-2 BBE cells 5 images of fields with clusters of hNGAL-R expressing Caco-2 BBE cells and 5 images of clusters of Caco-2 BBE cells not expressing hNGAL-R were analyzed in the absence or presence of the ligand of the hNGAL-R, hNGAL/lipocalin-2 (500 pM).
Unless otherwise indicated, the experiments were repeated at least three times and means ± S.D. were calculated, unless otherwise indicated. Analysis by unpaired Student’s t test or one-way ANOVA assuming equality of variance with Newman-Keuls Multiple Comparison test and Dunnett’s post-hoc test was performed with GraphPad Prism 5.0. […] Transcytosis data fitted using a one-phase exponential decay function. All curve fits were done with GraphPad Prism 5.0. Results with P < 0.05 were considered to be statistically significant.

[2] = tested on: colon-like Caco-2 BBE cell monolayers; assay: Apical-to-basolateral transcytosis of fluorescence-labelled ligands across Transwell monolayers; type: in vitro ADME, human; conditions: colon-like Caco-2 BBE monolayers on Transwell, A-B, 700 nM ligand apical, control conditions (no hNGAL), fluorescence read-out; means ± SEM, n = 9-14
Description: For transyctosis studies Costar Transwell® culture inserts placed on 24-well plates were used (0.4 µM PE membrane, 0.33 cm^2 filter area. Corning Inc., Corning, NY, USA). Briefly, 1.3 ml of Caco-2 BBE medium with 10% FBS was added to the basolateral compartment and Caco-2 BBE colon-like cells were plated at a density of 5 x 10^4 cells/insert in 400 µl medium with 10% FBS added to the apical compartment. The transepithelial electrical resistance (TEER) across the cell monolayer was measured after 0, 24, 48, 72 h culture as well as before and after each experiment. The medium was replaced after 48 h on both, top (apical) and bottom (basolateral) compartments of the culture inserts. […] Before each experiment, the apical medium was replaced by 400 µl medium containing 1% FBS medium and the appropriate fluorescence-labelled ligand at a final concentration of 700 nM with or without 500 pM hNGAL whereas the basolateral medium with 10% FBS remained unchanged. At each experimental time point, 10 µl of the basolateral and the apical medium was removed, frozen at -80° C and subsequently analyzed for fluorescence intensity using standard capillaries in a Monolith NT.015 (NanoTemper Technologies GmbH, Munich, Germany). Data were quantified by semi-logarithmic plotting against standards obtained from stock solutions of fluorescent ligands. […]

Compound | Kd ([1]; read-out: first app KD of A488-PC3 internalization (two-site binding fit)) | Kd ([1]; read-out: second app KD of A488-PC3 internalization (two-site binding fit)) | effect of 500 pM hNGAL on uptake of 0.7 µM ligand ([1]; 24 h incubation, 0.7 µM ligand with 500 pM hNGAL, 4-5 experiments) | basolateral delivery (AUC over 8 h) [2]
N=c1ccc2c(-c3ccc(C(=O)N[C@@H](CCC(=O)N[C@@H](CS)C(=O)N[C@@H](CCC(=O)N[C@@H](CS)C(=O)N[C@@H](CCC(=O)N[C@@H](CS)C(=O)NCC(=O)O)C(=O)O)C(=O)O)C(=O)O)cc3C(=O)O)c3ccc(N)c(S(=O)(=O)O)c3oc-2c1S(=O)(=O)O [A488-PC3] ({X1-γGlu}-C[γGlu]C[γGlu]CG-OH; N-terminus and C-terminus assumed) | ~90 nM | ~300 nM | significantly reduced | 299.4 ± 18.7 nM x 8 h
A546-Tf: Alexa Fluor 546-labelled transferrin from human serum (Molecular Probes) |  |  |  | 402.4 ± 28.0 nM x 8 h
